Experimental data from ChEMBL document CHEMBL1201862, “PubChem BioAssay data set” (2004).
Active and inactive are the calls of the source.

How the values were obtained:
[1] = target: T1, SUMO-activating enzyme (Homo sapiens, UniProt Q9UBT2); experiment: SUMOylation inhibitor hit validation, confirmation, SUMOylation inhibitor project, biochemical, AlphaScreen (AID 2018); assay type: functional
[2] = target: T1, SUMO-activating enzyme; experiment: inhibitors of in vitro SUMOylation cascade, primary screen, biochemical, HTRF, uHTS (AID 2006); assay type: protein-complex assay
[3] = target: SUMO E1/E2 (Homo sapiens, UniProt P63279+Q9UBE0+Q9UBT2); experiment: SAR analysis of SUMOylation using HTRF in an in-Vitro dose response assay. [Related pubchem assays (depositor defined):AID2006, AID2011, AID2018, AID2069, AID2658]; assay type: functional
[4] = target: T2, Carboxy-terminal domain RNA polymerase II polypeptide A small phosphatase 1 (Homo sapiens, UniProt Q9GZU7); experiment: inhibitors of CTDSP1, concentration-response testing, biochemical assay, absorbance-based, actives from ultra-high-throughput screening (AID 540297); assay type: functional
T2 sequence (Q9GZU7 whole entry): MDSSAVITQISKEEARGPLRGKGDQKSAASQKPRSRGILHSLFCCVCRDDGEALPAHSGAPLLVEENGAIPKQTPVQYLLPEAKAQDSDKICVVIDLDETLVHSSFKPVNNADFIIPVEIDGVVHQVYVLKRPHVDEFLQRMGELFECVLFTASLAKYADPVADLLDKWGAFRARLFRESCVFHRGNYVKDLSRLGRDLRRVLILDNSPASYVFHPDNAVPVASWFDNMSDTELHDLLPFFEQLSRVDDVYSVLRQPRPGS

[5] = test system: HEK293; experiment: NOD1 signaling inhibitors, primary screen, cell-based, luminescence, uHTS (AID 1578); assay type: functional; conditions: Homo sapiens
[6] = test system: HEK293; experiment: cells; assay type: functional, cell-based; conditions: Homo sapiens
[7] = test system: HEK293; experiment: cells; assay type: functional, cell-based; conditions: Homo sapiens; remark: listed apart in the source
[8] = test system: HEK293; experiment: NOD2 signaling inhibitors in MDP-stimulated cells, cell-based, uHTS, luminescence (AID 2001); assay type: functional; conditions: Homo sapiens
[9] = target: Lysine-specific demethylase 4C (Homo sapiens, UniProt Q9H3R0); experiment: GASC-1 (JMJD2C) histone demethylase inhibitors, dose response, biochemical, DELFIA europium, cherry-picked samples (AID 488835); assay type: functional
[10] = target: T3, RNA-binding protein pos-1 (Caenorhabditis elegans, UniProt G5EF15); experiment: inhibitors of POS-1/mex-3 RNA binding, dose response, biochemical, fluorescence polarization (AID 1964);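 also: purified POS-1 fused to maltose binding protein made in E. coli; potency of compounds blocking POS-1 binding to fluorescent RNA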
T3 sequence (G5EF15 whole entry): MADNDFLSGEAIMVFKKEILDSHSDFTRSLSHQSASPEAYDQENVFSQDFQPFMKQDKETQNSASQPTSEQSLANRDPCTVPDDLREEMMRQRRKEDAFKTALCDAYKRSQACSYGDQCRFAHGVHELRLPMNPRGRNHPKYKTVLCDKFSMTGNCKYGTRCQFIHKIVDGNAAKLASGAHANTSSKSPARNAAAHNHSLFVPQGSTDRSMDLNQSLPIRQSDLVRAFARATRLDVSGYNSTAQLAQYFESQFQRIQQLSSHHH

[11] = target: T4, Tyrosine-protein phosphatase non-receptor type 7 (Homo sapiens, UniProt P35236); assay type: functional
T4 sequence (P35236 whole entry): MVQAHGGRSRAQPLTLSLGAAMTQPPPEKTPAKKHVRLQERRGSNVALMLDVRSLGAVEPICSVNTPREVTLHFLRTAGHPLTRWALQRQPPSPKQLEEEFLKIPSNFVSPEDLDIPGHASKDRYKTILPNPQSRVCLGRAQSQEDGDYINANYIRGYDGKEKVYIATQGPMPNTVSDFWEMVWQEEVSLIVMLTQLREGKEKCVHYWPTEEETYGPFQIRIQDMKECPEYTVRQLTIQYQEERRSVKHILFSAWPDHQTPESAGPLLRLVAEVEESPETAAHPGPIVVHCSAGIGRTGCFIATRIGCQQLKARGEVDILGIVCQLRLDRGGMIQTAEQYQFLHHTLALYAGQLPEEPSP

[12] = target: T5, Zinc finger protein mex-5 (Caenorhabditis elegans, UniProt Q9XUB2); experiment: MEX-5/TCR-2 RNA interaction inhibitors, dose response, biochemical, C. elegans, fluorescence polarization (AID 1960)
T5 sequence (Q9XUB2 whole entry): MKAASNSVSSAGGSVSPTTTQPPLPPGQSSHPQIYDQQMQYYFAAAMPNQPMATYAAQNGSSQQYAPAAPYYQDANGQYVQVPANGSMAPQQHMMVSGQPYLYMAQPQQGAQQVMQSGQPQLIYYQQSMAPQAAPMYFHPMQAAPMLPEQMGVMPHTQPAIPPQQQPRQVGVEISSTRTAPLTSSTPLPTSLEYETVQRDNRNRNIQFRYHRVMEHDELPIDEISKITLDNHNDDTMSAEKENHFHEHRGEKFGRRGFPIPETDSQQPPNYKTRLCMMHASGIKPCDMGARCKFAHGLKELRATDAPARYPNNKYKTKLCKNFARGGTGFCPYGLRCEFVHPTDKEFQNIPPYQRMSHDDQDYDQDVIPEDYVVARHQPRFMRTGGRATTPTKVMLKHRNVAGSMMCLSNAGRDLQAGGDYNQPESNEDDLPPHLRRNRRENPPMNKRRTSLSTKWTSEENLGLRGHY

[13] = target: T6, Tyrosine-protein phosphatase non-receptor type 22 (Homo sapiens, UniProt Q9Y2R2); assay type: functional
T6 sequence (Q9Y2R2 whole entry): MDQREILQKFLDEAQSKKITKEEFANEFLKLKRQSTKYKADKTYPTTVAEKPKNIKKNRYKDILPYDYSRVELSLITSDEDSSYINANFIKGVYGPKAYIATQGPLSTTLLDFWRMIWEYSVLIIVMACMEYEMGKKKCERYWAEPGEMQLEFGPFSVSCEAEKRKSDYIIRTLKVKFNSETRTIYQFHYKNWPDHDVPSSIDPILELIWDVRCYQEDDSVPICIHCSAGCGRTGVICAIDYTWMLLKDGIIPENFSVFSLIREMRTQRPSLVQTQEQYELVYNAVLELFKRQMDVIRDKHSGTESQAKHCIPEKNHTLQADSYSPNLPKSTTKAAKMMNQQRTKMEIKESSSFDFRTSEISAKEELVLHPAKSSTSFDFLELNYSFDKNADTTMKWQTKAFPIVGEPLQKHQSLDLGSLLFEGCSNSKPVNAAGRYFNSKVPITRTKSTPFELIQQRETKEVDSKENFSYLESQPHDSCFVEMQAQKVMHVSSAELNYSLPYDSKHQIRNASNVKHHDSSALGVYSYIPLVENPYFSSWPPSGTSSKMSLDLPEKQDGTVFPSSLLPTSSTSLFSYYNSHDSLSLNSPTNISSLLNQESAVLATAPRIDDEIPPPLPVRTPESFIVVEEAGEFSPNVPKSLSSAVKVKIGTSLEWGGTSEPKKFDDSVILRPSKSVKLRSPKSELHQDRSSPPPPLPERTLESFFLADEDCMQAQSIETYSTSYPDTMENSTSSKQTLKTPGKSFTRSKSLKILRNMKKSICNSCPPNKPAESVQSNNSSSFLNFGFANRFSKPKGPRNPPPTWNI

[14] = target: T6, Tyrosine-protein phosphatase non-receptor type 22; assay type: functional; remark: listed apart in the source
[15] = test system: HEK293; experiment: Fluorescence-based counterscreen for potentiators or agonists of NPY-Y2: cell-based high-throughput dose response assay to identify inhibitors of cyclic nucleotide gated ion channel (CNGC) activity. In this assay, the parental HEK293 cell line transfected with a cyclic-nucleotide gated ion channel (CNGC)-based cAMP sensor is used to measure inhibition of isoproterenol-induced CNGC activity by test compound.; assay type: functional; conditions: Homo sapiens
[16] = target: T7, Neuropeptide Y receptor type 2 (Homo sapiens, UniProt P49146); experiment: Fluorescence-based cell-based high-throughput dose response assay for agonists of NPY-Y2. [Related pubchem assays: 1703 (Screening assay (CNGC inhibitors).), 1359 (Screening assay (NPY-Y2 potentiators or agonists).), 1304 (Screening assay (NPY-Y1 potentiators or agonists).), 1710 (Screening assay (NPY-Y2 agonists).), 1791 (Summary AID.)]; assay type: functional
T7 sequence (P49146 whole entry): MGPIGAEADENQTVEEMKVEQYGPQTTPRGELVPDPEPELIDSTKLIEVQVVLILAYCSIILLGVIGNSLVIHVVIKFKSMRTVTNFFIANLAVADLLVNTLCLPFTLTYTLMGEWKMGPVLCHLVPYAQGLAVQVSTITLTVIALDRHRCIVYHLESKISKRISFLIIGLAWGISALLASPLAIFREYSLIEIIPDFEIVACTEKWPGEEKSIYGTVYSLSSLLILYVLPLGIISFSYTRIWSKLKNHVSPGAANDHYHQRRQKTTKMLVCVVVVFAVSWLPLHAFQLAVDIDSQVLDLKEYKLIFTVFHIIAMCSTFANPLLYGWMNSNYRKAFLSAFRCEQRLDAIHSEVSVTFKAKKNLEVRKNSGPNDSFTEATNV

[17] = target: Nucleotide-binding oligomerization domain-containing protein 2 (Homo sapiens, UniProt Q9HC29); experiment: NOD2 signaling inhibitors, cell-based, luminescence, uHTS, HEK293 (AID 1566); assay type: functional
[18] = test system: HEK293; experiment: cells; assay type: functional, cell-based; conditions: Homo sapiens; remark: listed apart in the source
[19] = target: T8, Neuropeptide Y receptor type 1 (Homo sapiens, UniProt P25929); experiment: Fluorescence-based counterscreen for agonists of NPY-Y2: cell-based high-throughput dose response assay for agonists of NPY-Y1.; assay type: functional
T8 sequence (P25929 whole entry): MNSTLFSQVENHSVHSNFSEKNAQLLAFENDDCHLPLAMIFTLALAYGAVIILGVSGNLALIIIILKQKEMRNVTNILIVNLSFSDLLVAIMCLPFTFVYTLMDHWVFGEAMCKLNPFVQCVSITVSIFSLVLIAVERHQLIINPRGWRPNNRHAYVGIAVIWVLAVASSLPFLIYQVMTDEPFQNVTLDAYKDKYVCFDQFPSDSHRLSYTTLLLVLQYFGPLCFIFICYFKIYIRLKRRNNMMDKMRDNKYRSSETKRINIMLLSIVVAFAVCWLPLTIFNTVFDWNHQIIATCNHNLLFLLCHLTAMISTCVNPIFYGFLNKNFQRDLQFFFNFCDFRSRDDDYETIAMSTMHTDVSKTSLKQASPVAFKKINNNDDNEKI

[20] = THP-1 cell cytotoxicity, dose response, cytotoxicity control for non-replicating M. tuberculosis project (AID 489025); assay type: functional
[21] = HepG2 cell cytotoxicity, dose response, cytotoxicity control for non-replicating M. tuberculosis project (AID 489018); assay type: functional; conditions: Mycobacterium tuberculosis
[22] = target: T9, Microphthalmia-associated transcription factor (Homo sapiens, UniProt O75030); experiment: TRPM1 promoter luciferase signal decrease, dose response, MITF inhibitor project, cell-based, SK-MEL-5, cherry-picked, set 3 (AID 493073); assay type: functional
T9 sequence (O75030 whole entry): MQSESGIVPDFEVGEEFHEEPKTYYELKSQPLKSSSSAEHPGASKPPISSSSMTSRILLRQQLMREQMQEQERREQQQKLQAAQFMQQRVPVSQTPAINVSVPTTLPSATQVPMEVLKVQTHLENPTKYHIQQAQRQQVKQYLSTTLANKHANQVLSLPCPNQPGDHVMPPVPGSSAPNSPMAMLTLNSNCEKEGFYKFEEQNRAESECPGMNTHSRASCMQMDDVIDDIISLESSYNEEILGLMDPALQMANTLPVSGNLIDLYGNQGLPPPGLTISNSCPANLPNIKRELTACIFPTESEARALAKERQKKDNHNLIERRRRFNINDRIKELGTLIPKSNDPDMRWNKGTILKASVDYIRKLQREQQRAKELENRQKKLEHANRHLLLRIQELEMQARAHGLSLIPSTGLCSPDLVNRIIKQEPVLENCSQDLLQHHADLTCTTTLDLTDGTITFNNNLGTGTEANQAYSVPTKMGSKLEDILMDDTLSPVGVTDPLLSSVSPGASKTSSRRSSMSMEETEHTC

[23] = cells; assay type: functional
[24] = test system: Vero; experiment: cells; assay type: functional; conditions: Chlorocebus sabaeus

T1 sequence (Q9UBE0 whole entry): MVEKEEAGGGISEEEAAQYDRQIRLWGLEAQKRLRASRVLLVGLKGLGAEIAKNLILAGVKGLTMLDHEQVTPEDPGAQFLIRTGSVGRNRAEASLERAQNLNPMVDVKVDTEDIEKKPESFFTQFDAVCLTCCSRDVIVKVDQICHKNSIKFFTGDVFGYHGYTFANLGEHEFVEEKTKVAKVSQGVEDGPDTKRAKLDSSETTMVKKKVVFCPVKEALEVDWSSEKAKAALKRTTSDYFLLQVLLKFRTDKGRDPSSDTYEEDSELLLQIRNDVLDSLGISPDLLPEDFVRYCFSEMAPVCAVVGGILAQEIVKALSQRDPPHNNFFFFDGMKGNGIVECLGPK
T1 sequence (Q9UBT2 whole entry): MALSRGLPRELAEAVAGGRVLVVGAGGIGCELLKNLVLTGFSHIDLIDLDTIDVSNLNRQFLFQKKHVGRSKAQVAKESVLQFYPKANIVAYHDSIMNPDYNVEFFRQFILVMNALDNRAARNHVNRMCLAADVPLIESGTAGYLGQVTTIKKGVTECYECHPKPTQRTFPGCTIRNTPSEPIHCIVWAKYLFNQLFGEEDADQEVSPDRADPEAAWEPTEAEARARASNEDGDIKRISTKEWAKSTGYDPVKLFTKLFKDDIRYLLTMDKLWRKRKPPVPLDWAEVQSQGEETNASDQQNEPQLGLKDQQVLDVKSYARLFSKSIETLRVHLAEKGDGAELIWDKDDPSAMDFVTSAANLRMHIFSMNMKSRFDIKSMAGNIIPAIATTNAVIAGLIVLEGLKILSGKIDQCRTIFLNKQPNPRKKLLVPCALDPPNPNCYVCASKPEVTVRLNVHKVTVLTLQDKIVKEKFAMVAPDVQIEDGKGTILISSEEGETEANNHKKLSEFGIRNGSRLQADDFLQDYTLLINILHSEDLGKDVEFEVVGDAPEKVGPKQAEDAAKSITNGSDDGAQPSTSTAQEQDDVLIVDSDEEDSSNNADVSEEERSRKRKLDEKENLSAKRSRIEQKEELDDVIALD
Sequence of Lysine-specific demethylase 4C (Q9H3R0 whole entry, the tested form may be a part): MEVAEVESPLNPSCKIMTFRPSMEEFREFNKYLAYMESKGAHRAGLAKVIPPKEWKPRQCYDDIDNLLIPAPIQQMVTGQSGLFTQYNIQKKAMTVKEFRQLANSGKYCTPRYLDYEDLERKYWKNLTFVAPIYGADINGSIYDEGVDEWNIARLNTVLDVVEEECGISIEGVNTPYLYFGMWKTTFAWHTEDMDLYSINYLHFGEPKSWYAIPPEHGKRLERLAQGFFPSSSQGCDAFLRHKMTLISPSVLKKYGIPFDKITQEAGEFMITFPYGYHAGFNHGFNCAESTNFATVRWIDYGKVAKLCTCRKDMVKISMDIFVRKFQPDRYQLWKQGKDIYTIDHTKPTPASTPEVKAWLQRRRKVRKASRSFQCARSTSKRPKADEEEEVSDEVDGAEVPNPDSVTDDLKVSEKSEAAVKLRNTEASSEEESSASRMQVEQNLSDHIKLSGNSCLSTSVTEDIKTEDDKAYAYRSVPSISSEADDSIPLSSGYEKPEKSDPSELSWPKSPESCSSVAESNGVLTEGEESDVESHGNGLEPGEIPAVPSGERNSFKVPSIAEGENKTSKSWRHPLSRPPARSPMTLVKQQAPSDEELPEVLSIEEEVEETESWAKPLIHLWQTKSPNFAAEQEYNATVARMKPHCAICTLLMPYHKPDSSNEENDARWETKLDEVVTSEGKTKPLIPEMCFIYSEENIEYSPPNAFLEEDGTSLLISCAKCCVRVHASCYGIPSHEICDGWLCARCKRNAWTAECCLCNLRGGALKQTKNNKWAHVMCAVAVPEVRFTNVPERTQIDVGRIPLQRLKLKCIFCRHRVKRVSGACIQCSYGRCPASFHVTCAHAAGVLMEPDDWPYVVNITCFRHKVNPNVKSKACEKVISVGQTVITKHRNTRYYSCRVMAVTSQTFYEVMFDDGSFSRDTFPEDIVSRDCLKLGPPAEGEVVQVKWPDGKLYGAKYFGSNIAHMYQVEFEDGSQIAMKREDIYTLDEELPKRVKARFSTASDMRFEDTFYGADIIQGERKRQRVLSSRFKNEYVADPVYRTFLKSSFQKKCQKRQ
Sequence of SUMO E1/E2 (Q9UBE0 whole entry, the tested form may be a part): as the sequence (Q9UBE0 whole entry) above
Sequence of SUMO E1/E2 (Q9UBT2 whole entry, the tested form may be a part): as the sequence (Q9UBT2 whole entry) above
Sequence of SUMO E1/E2 (P63279 whole entry, the tested form may be a part): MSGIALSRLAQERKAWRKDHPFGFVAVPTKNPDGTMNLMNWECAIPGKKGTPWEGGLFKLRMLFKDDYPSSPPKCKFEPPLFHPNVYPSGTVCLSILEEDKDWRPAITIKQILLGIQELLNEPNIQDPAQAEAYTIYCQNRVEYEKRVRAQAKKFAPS
Sequence of Nucleotide-binding oligomerization domain-containing protein 2 (Q9HC29 whole entry, the tested form may be a part): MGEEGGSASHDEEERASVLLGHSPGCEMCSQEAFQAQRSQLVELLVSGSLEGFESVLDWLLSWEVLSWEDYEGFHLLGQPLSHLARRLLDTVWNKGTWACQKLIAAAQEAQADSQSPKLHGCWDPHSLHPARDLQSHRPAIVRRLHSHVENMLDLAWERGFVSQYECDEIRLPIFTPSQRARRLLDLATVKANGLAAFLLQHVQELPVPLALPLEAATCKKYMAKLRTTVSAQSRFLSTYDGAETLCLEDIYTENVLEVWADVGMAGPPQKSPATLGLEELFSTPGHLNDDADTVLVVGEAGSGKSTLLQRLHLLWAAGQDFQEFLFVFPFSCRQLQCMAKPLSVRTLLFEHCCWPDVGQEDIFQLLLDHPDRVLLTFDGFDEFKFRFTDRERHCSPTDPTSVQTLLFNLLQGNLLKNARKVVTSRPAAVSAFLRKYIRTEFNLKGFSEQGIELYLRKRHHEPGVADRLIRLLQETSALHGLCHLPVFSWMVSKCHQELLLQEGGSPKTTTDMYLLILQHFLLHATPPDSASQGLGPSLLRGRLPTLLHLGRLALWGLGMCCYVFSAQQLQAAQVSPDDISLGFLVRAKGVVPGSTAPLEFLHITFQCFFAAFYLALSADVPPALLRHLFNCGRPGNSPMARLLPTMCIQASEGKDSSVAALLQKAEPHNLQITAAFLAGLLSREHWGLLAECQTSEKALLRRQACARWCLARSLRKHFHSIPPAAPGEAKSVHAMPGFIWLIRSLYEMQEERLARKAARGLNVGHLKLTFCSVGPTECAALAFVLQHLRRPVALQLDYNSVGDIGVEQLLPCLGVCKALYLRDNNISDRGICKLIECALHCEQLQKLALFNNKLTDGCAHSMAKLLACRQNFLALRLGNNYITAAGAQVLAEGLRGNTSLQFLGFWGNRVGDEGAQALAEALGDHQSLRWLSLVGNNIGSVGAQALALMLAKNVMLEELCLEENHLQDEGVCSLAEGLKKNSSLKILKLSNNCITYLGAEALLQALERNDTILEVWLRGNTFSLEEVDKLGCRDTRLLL

Cc1ccccc1NC(=O)Cn1c(O)c(N=NC(=O)c2ccccc2O)c2ccccc21
IC50 [1]: 8.06 µM (active) | IC50 [2]: 9.83 µM (active) | IC50 [3]: 49.7 µM (active) | IC50 [4]: 1.23 µM (active)

CN(C)S(=O)(=O)N1CCC(Oc2cccc(C(=O)NC3CCCCC3)c2)CC1
EC50 [5]: 6.77 µM (active) | IC50 [6]: 11.3 µM (active) | IC50 [7]: 18.8 µM (active) | IC50 [8]: 17.5 µM (inactive)

O=c1cc(N2CCc3ccccc32)[nH]c(=O)n1-c1ccccc1
AC50 [9]: 20.7 µM (active)

COc1cc(CC2C(=O)N(C)C(=O)N(C)C2=O)ccc1OCc1ccccc1
AC50 [9]: 7.97 µM (active)

COCCn1c(=N)c(S(=O)(=O)c2ccc(Br)cc2)cc2c(=O)n3ccccc3nc21
EC50 [10]: > 300 µM (inconclusive) | IC50 [11]: > 79.4 µM (inactive) | EC50 [12]: 4.16 µM (active) | IC50 [13]: > 79.4 µM (inactive) | IC50 [14]: > 79.4 µM (inactive)

O=C(N/N=C/c1cccc2cccnc12)c1ccccc1O
EC50 [5]: > 20 µM (inactive) | EC50 [15]: > 35.4 µM (not active) | IC50 [6]: 6.52 µM (active) | EC50 [16]: > 35.4 µM (not active) | IC50 [7]: > 20 µM (inactive) | EC50 [17]: > 20 µM (inactive) | IC50 [8]: 5.04 µM (inactive) | IC50 [18]: > 20 µM (inactive) | EC50 [19]: > 35.4 µM (not active) | CC50 [20]: 11.7 µM (active) | CC50 [21]: > 20 µM (active) | AC50 [22]: 24.8 µM (active) | IC50 [23]: 0.97 µM (active) | CC50 [24]: 18.8 µM (active)
